Test results as given in patent US6362369B1, “Phthalic acid diamide derivatives fluorine-containing aniline compounds as starting material, agricultural and horticultural insecticides, and a method for application of the insecticides” (Nihon Nohyaku Co., Ltd., priority 1997, dated 2002).

Columns and labels:
Assay type in all cases: in vivo
[1] = tested on: rice leafroller (Cnaphalocrocis medinalis); experiment: Insecticidal effect on rice leafroller (Test Example 3); conditions: 500 ppm, 25° C., humidity 70%; for Insecticidal effect, Test Example 3: rice lamina immersed; for Insecticidal effect, Test Example 3 / Insecticidal effect on rice leafroller (Test Example 3), judged grade: four days after inoculation; for Insecticidal effect (Test Example 3), judged from mortality / Insecticidal effect on rice leafroller (Test Example 3), judged grade: rice lamina dip; for Insecticidal effect (Test Example 3), judged from mortality: 4 days after inoculation; for Insecticidal effect on rice leafroller (Test Example 3), judged grade: third-instar larvae
Outline: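 Groups of 10 third-instar larvae, in triplicate, are placed on air-dried lamina resting on wet filter paper. Incubation runs four days at 25° C with 70% humidity before survivors and dead are tallied.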

[2] = tested on: diamondback moth (Plutella xylostella); experiment: Insecticidal effect on diamondback moth (Test Example 1); conditions: for Insecticidal effect, Test Example 1 / Insecticidal effect (Test Example 1), judged from mortality: diamondback moth; for Insecticidal effect (Test Example 1), judged from mortality: judged by the criterion of Test Example 1; for Insecticidal effect on diamondback moth (Test Example 1), judged grade: mortality judged according to the criterion shown in Test Example 1
Outline: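 Chinese cabbage seedlings carrying eggs laid by released adult moths were immersed in treatment, air-dried and held at 25° C. Hatched insects were counted six days after immersion, and mortality was calculated and scored against a fixed criterion. Three replicate groups of 10 insects were used.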

[3] = tested on: common cutworm (Spodoptera Litura); experiment: Insecticidal effect on common cutworm (Test Example 2); conditions: 500 ppm, 25° C.; for Insecticidal effect, Test Example 2: cabbage leaf immersed; for Insecticidal effect, Test Example 2 / Insecticidal effect on common cutworm (Test Example 2), judged grade: eight days after inoculation; for Insecticidal effect (Test Example 2), judged from mortality / Insecticidal effect on common cutworm (Test Example 2), judged grade: cabbage leaf dip; for Insecticidal effect (Test Example 2), judged from mortality: 8 days after inoculation; for Insecticidal effect on common cutworm (Test Example 2), judged grade: second-instar larvae
Outline: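 After the treated material air-dries, it goes into a dish, second-instar larvae are added, and the dish is closed. Incubation runs at 25° C. On day eight, dead and living larvae are scored, and the calculated mortality is rated on an effect scale.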

[4] = third-instar larvae of rice leafroller
[5] = judged by the mortality criterion of Test Example 1
[6] = second-instar larvae of common cutworm
[7] = rice leafroller third-instar larvae
[8] = mortality judged by criterion of Test Example 1
[9] = common cutworm second-instar larvae

SMILES	Insecticidal effect, Test Example 3 [1, 4]	Insecticidal effect, Test Example 1 [2, 5]	Insecticidal effect, Test Example 2 [3, 6]	Insecticidal effect, Test Example 3 [1, 7]	Insecticidal effect, Test Example 1 [2, 8]	Insecticidal effect, Test Example 2 [3, 9]	further results
Cc1ccc(Cl)cc1NC(=O)c1cccc(Br)c1C(=O)NC(C)C [compound 268]	A (100)	A (100)	A (100)				
Cc1cc(C(F)(F)C(F)(F)F)ccc1NC(=O)c1cccc([S+]([O-])C(F)(F)F)c1C(=O)NC(C)C (stereo not drawn) [compound 1803]							Insecticidal effect (Test Example 3), judged from mortality [1, 4]: A (100); Insecticidal effect (Test Example 1), judged from mortality [2]: A (100); Insecticidal effect (Test Example 2), judged from mortality [3, 6]: A (100)
CC(C)NC(=O)c1c(C(=O)Nc2ccc(Cl)c(Cl)c2)cccc1[N+](=O)[O-] [compound 636]							Insecticidal effect on rice leafroller (Test Example 3), judged grade [1]: A (100); Insecticidal effect on diamondback moth (Test Example 1), judged grade [2]: A (100); Insecticidal effect on common cutworm (Test Example 2), judged grade [3]: D (79-50)
CC(C)(C)NC(=O)c1c(I)cccc1C(=O)Nc1ccc2c(c1)OC(F)C(F)(F)O2 (stereo not drawn) [compound 1150]				A (100)	A (100)	A (100)	
Cc1cc(SC(F)(F)C(F)(F)F)ccc1NC(=O)c1cccc(F)c1C(=O)NC(C)C [compound 905]							Insecticidal effect on rice leafroller (Test Example 3), judged grade [1]: A (100); Insecticidal effect on diamondback moth (Test Example 1), judged grade [2]: A (100); Insecticidal effect on common cutworm (Test Example 2), judged grade [3]: A (100)
CCNC(=O)c1cccc(I)c1C(=O)Nc1ccc(C(F)(C(F)(F)F)C(F)(F)F)cc1C [compound 1074]				A (100)	A (100)	A (100)	
CC(C)NC(=O)c1c(Cl)cccc1C(=O)Nc1ccc(S(=O)(=O)C(F)(F)F)cc1 [compound 1078]				A (100)	A (100)	A (100)	
Cc1c(NC(=O)c2cccc(Cl)c2C(=O)NC(C)C)cccc1OC(F)(F)C(F)Cl (stereo not drawn) [compound 142]	B (99-90)	A (100)	A (100)				
CC(C)NC(=O)c1c(C(=O)Nc2ccc(OC(F)(F)F)cc2)cccc1[N+](=O)[O-] [compound 618]							Insecticidal effect on rice leafroller (Test Example 3), judged grade [1]: A (100); Insecticidal effect on diamondback moth (Test Example 1), judged grade [2]: A (100); Insecticidal effect on common cutworm (Test Example 2), judged grade [3]: A (100)
CC(C)NC(=O)c1cccc([N+](=O)[O-])c1C(=O)Nc1ccc(C(F)(F)C(F)(F)C(F)(F)F)cc1Cl [compound 741]							Insecticidal effect on rice leafroller (Test Example 3), judged grade [1]: A (100); Insecticidal effect on diamondback moth (Test Example 1), judged grade [2]: A (100); Insecticidal effect on common cutworm (Test Example 2), judged grade [3]: A (100)
Cc1cc(OC(F)(F)F)ccc1NC(=O)c1ccc(F)c(Cl)c1C(=O)NC(C)C [compound 1227]				A (100)	A (100)	A (100)	
CC(C)NC(=O)c1cccc(F)c1C(=O)Nc1ccc(C(F)(F)F)cc1Cl [compound 550]							Insecticidal effect on rice leafroller (Test Example 3), judged grade [1]: A (100); Insecticidal effect on diamondback moth (Test Example 1), judged grade [2]: A (100); Insecticidal effect on common cutworm (Test Example 2), judged grade [3]: C (89-80)
CC(C)NC(=O)c1c(I)cccc1C(=O)Nc1ccc2c(c1)OC(F)C(F)(F)O2 (stereo not drawn) [compound 1148]				A (100)	A (100)	A (100)	
Cc1cc(C(F)(F)C(F)(F)F)ccc1NC(=O)c1cccc(I)c1C(=O)NCC1CCCCC1 [compound 1028]				A (100)	A (100)	A (100)	
CC(C)(C)NC(=O)c1c(Cl)cccc1C(=O)Nc1ccc(SC(F)(F)Br)cc1 [compound 1114]				A (100)	A (100)	A (100)	
Cc1cc(OC(F)(F)C(F)(Cl)Cl)ccc1NC(=O)c1cccc(I)c1C(=O)NC(C)C [compound 381]	A (100)	A (100)	A (100)				
Cc1cc(C(F)(F)C(F)(F)C(F)(F)F)ccc1NC(=O)c1c(I)cccc1C(=O)NC(C)C [compound 438]	A (100)	A (100)	B (99-90)				
CC(C)NC(=O)c1c(Br)cccc1C(=O)Nc1ccc(OC(F)(F)F)cc1Cl [compound 286]	A (100)	A (100)	A (100)				
Cc1cc(Oc2cccc(C(F)(F)F)c2)ccc1NC(=O)c1cccc(Br)c1C(=O)NC(C)C [compound 297]	B (99-90)	A (100)	A (100)				
CC(C)NC(=O)c1c(I)cccc1C(=O)Nc1ccc(OC(F)(F)F)cc1Cl [compound 408]	A (100)	A (100)	B (99-90)				
Cc1cc(C(F)(F)C(F)(F)F)ccc1NC(=O)c1cccc(Cl)c1C(=O)NC(C)CBr (stereo not drawn) [compound 1652]							Insecticidal effect (Test Example 3), judged from mortality [1, 4]: A (100); Insecticidal effect (Test Example 1), judged from mortality [2]: A (100); Insecticidal effect (Test Example 2), judged from mortality [3, 6]: A (100)
Cc1cc(C(F)(C(F)(F)F)C(F)(F)F)ccc1NC(=O)c1ccc(F)c(Cl)c1C(=O)NC(C)C [compound 1229]				A (100)	A (100)	A (100)	
Cc1cc(OC(F)F)ccc1NC(=O)c1ccccc1C(=O)NC(C)C [compound 58]	A (100)	A (100)	A (100)				
Cc1ccc(NC(=O)c2cccc(I)c2C(=O)NC(C)C)c(C)c1Cl [compound 364]	D (79-50)	A (100)	A (100)				
Cc1cc(C(F)(F)C(F)(F)F)ccc1NC(=O)c1ccccc1C(=O)NC(C)(C)C [compound 931]							Insecticidal effect on rice leafroller (Test Example 3), judged grade [1]: A (100); Insecticidal effect on diamondback moth (Test Example 1), judged grade [2]: A (100); Insecticidal effect on common cutworm (Test Example 2), judged grade [3]: A (100)
